Experimental data as given in article PMC4489612, “Unravelling the Evolution of the Allatostatin-Type A, KISS and Galanin Peptide-Receptor Gene Families in Bilaterians: Insights from Anopheles Mosquitoes” (PLoS ONE, 2015).
Ends that are not written are not given here.

How the values were obtained:
[1] = tested on: galanin receptors (GALR); conditions: vertebrates; cited from earlier work
From the text: AST-A peptides activate specific G-protein coupled receptors (GPCRs), the insect allatostatin-A receptors (AST-ARs) that are considered orthologues of galanin receptors (GALR) in vertebrates. In vertebrates, GALRs have a close evolutionary relationship with kisspeptin receptors (KISSR) and are activated by galanin (GAL) and spexin (SPX), peptides that are unrelated to insect AST-As. AST-A peptide function is relatively well studied but the receptors have only been isolated in a few insect species and their evolution and function is unresolved. In t ...

[2] = tested on: GPRALS2; experiment: iCa^2+ release (Fluo-4 NW) in stable CHO cells expressing GPRALS2; format: cell-based, Anopheles coluzzii; conditions: 1 nM to 1 μM (BLAST-2 0.5 μM to 0.005 μM)
Protocol: (§1) The amplified insect receptors included the initiation and termination codons but were not cloned in frame with vector tag proteins. The recombinant constructs were used to transfect mammalian CHO cells that had been maintained in complete Dulbecco’s modified Eagle’s medium (DMEM, Sigma, Spain) containing 4.5 g/L glucose, 110 mg/L sodium pyruvate and L-glutamine and supplemented with 10% sterile foetal bovine serum and 0.1% penicillin: streptomycin antibiotic mix (10.000 U: 10 mg/ml, Sigma) and 250μg/ml sterile filtered amphotericin B solution (1:100 dilution, Sigma, Spain). One day prior to transfection, 2–3 x10^5 cells were seeded into 6 well plates (Sarstedt, Portugal) and transfected using Fugene 6 reagent (1: 6 DNA: Fugene, Roche, Germany) according to the manufacturer’s protocol. The efficiency and success of cell transfection was estimated by performing a simultaneous transfection with a plasmid encoding a fluorescent protein. 72 h after incubation, transformed cells were selected by supplementing medium with 800μg/ml of the antibiotic Geneticin (G418 sulphate, GibcoBRL, USA) and cell recovery was monitored daily and the medium changed until no cell death was observed. Establishment of AST-AR CHO stable cell lines were confirmed by PCR using receptor specific primers.
(§2) GPRALS1 and GPRALS2 stable CHO cell lines were stimulated with Ano_AST-A1 and Ano_AST-A2 peptides, the B. germanica BLAST-2 peptide and rat GAL and sea bass KISS peptides and iCa^2+ release and cAMP production were measured.
(§3) For iCa^2+ release (Relative Fluorescent Units, RFU) a Ca^2+ sensitive fluorescent dye Fluo-4 NW (Molecular Probes, Invitrogen) was used. Approximately 50,000 cells were assayed per well and the variation in fluorescence after addition of increasing peptide concentrations (1 nM to 1 μM, diluted in the assay buffer) was measured every 5s over a total of 2 min and fluorescence was excited using a 485/20 nm filter and captured with a 528/20 nm filter in a Biotek Synergy 4 plate reader (Biotek, USA). Background RFU of transfected cells was measured prior to peptide stimulation. The controls consisted of transfected cells exposed to carbachol (100 nM; Sigma, Spain) and non-transfected CHO cells stimulated with 1 μM of each peptide (negative control).
(§4) Quantitative expression data is presented as mean ± SEM of cDNA from 3 independent experiments analysed in duplicate. Significant changes in transcript expression were assessed using a nonparametric Mann-Whitney two-tailed test. Receptor activation is presented as the mean ± SEM of three independent experiments carried out in triplicate and statistical significance was assessed using a Kruskal-Wallis test with Dunn’s Multiple Comparison Test. […]

[3] = tested on: GPRALS1; experiment: iCa^2+ release (Fluo-4 NW) in stable CHO cells expressing GPRALS1; format: cell-based, Anopheles coluzzii; conditions: 1 nM to 1 μM (BLAST-2 0.5 μM to 0.005 μM)
Protocol: as §1, §2, §3, §4

[4] = tested on: DAR-2; conditions: D. melanogaster DAR-2; cited from earlier work
[5] = tested on: DAR-1; conditions: D. melanogaster DAR-1; cited from earlier work
[6] = tested on: GPRALS1; experiment: cAMP production (competitive immunoassay) in stable CHO cells expressing GPRALS1; format: cell-based, Anopheles coluzzii; conditions: 1 x PBS/1 mM IBMX, 30 min at 37°C, cryptate labelled anti-cAMP antibody, triplicate on three occasions
Protocol: (§5) The amplified insect receptors included the initiation and termination codons but were not cloned in frame with vector tag proteins. The recombinant constructs were used to transfect mammalian CHO cells that had been maintained in complete Dulbecco’s modified Eagle’s medium (DMEM, Sigma, Spain) containing 4.5 g/L glucose, 110 mg/L sodium pyruvate and L-glutamine and supplemented with 10% sterile foetal bovine serum and 0.1% penicillin: streptomycin antibiotic mix (10.000 U: 10 mg/ml, Sigma) and 250μg/ml sterile filtered amphotericin B solution (1:100 dilution, Sigma, Spain). […] 72 h after incubation, transformed cells were selected by supplementing medium with 800μg/ml of the antibiotic Geneticin (G418 sulphate, GibcoBRL, USA) and cell recovery was monitored daily and the medium changed until no cell death was observed. […]
as §2
(§6) The amount of cAMP produced was determined using a competitive immunoassay with a cryptate labelled anti-cAMP antibody (Cisbio, France) and following the manufactures protocol. […]
(§7) Quantitative expression data is presented as mean ± SEM of cDNA from 3 independent experiments analysed in duplicate. […]

[7] = tested on: GPRALS2; experiment: cAMP production (competitive immunoassay) in stable CHO cells expressing GPRALS2; format: cell-based, Anopheles coluzzii; conditions: 1 x PBS/1 mM IBMX, 30 min at 37°C, cryptate labelled anti-cAMP antibody, triplicate on three occasions
Protocol: as §5, §2, §6, §7

spexin (SPX): spexin (SPX), peptide activating vertebrate galanin receptors
GALR activation [1]: activated

rat 1–29 GAL: 1–29 rat galanin (Sigma-Aldrich, Spain) (GWTLNSAGYLLGPHAIDNHRSFSDKHGLT; ends and bridges not checked; UniProt P10683 33-61, looked up)
receptor activation, iCa^2+ signalling [2]: failed to activate
receptor activation, iCa^2+ signalling [3]: failed to activate

galanin (GAL): galanin (GAL), peptide activating vertebrate galanin receptors
GALR activation [1]: activated

FNFNPFGLRF-NH2 [KISS 2–10, vertebrate KISS peptide, sea bass KISS 2–10 ([…]-NH2)]
receptor activation, iCa^2+ signalling [2]: failed to activate
receptor activation, iCa^2+ signalling [3]: failed to activate

YNLNSFGLRY-NH2 [KISS 1–10, vertebrate KISS peptide, sea bass KISS 1–10 ([…]-NH2)]
receptor activation, iCa^2+ signalling [2]: failed to activate
receptor activation, iCa^2+ signalling [3]: failed to activate

DRLYSFGL-NH2 [BLAST-2, German cockroach Blattella germanica BLAST-2 peptide (DRLYSFGL-NH2)]
iCa^2+ mobilization [4]: stimulates iCa^2+ mobilization
receptor activation, iCa^2+ signalling [2]: activated
iCa^2+ mobilization [5]: stimulates iCa^2+ mobilization
receptor activation, iCa^2+ signalling [3]: activated
intracellular cAMP [6]: None of the insect peptides induced increased intracellular cAMP
intracellular cAMP [7]: None of the insect peptides induced increased intracellular cAMP
